Positions count from the first letter of the chain named. “And” between values parts separate entries of the source, which are not always exact repeats. Equal entries are not always repeated. Where a SMILES comes first, the peptide text is derived from it.
Experiments:
wild-type rPepT1 = target: T1, wild-type rPepT1 (Oryctolagus cuniculus, UniProt P36836); test: Competition of [3H]-D-Phe-L-Gln uptake into Xenopus oocytes, Ki by method of Deves and Boyd; format: cell-based, rabbit; conditions: against 0.4 μM [3H]-D-Phe-L-Gln uptake
T1 construct: expressed in transfected cells; host or cells: Xenopus laevis oocytes injected with cRNA
T1 sequence (P36836 1-707): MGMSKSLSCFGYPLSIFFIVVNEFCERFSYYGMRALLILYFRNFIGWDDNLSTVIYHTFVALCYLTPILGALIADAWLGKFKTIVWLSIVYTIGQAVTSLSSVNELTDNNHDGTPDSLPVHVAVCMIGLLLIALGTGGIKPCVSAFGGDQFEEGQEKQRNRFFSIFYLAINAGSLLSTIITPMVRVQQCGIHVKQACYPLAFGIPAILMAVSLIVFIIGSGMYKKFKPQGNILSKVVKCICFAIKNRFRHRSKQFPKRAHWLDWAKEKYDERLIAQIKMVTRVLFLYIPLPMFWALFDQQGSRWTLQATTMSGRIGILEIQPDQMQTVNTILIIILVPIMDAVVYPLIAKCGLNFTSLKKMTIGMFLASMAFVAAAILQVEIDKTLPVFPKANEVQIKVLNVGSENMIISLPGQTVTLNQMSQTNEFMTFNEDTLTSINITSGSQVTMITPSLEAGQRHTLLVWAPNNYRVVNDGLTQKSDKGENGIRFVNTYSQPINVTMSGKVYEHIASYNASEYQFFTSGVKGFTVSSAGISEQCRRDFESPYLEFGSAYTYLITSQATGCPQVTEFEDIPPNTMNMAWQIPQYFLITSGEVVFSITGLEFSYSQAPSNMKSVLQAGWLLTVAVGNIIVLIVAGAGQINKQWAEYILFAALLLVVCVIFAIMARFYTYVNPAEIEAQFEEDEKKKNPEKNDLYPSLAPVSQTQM
Protocol: (§1) rPepT1 constructs were linearised with XbaI (New England Biolabs, UK) and cRNA generated by in vitro transcription (T7 mMessage mMachine, Ambion, Cambridgeshire, UK). Xenopus laevis oocytes were obtained under MS222 anaesthesia (0.2%, w/v) in accordance with the UK Animals (Scientific Procedures) Act, 1986, and maintained at 18 °C in modified Barth's medium (88 mM NaCl, 1 mM KCl, 0.82 mM MgSO4, 2.4 mM NaHCO3, 0.42 mM CaCl2, 10 mM Hepes, 5 mM sodium pyruvate, 50 μg ml^−1 gentamicin (Fluka, Poole, UK), adjusted to pH 7.6 with 1 M NaOH). Transport measurements were performed at least 72 h after micro-injection of oocytes with 27nl cRNA (1 μg/μl), with medium changed daily.
Uptake of [^3H]-D-Phe-L-Gln (17.4 Ci/mmole, custom synthesised, Cambridge Research Biochemicals, Stockton-on-Tees, UK) was performed as previously described ([Meredith, 2004]). Briefly, 5 oocytes were incubated in 100 μl of uptake medium (95 mM NaCl, 2 mM KCl, 1 mM CaCl2, 0.42 mM MgCl2, 10 mM Tris/Hepes pH 7.4 or Tris/Mes pH 5.5) with tracer (0.4 μM) [^3H]-D-Phe-L-Gln. After incubation, the oocytes were washed sequentially five times in 1 ml of ice-cold 120 mM NaCl solution, lysed individually with 100 μl 2% (w/v) SDS and liquid scintillation counted. As a control non-injected oocytes were also incubated in uptake medium with D-Phe-L-Gln as above.
The affinity of wild-type and mutant rPepT1 transporters were assessed by competition studies with 0.4 μM [^3H]-D-Phe-L-Gln and Gly-L-Gln present in the uptake medium in concentrations from 0 to 2 mM using the protocol above, and the Ki calculated using the method of [Deves and Boyd (1989)].

Y91F-rPepT1 = target: T2, Y91F-rPepT1 (Oryctolagus cuniculus, UniProt P36836, Y91F); test: Uptake of tracer [3H]-D-Phe-L-Gln into Xenopus oocytes; format: cell-based, rabbit; conditions: corrected for surface expression; versus wild-type
T2 construct: expressed in transfected cells; host or cells: Xenopus laevis oocytes injected with cRNA
T2 sequence (P36836 1-707 Y91F): T1 sequence (P36836 1-707) with Y91F
Protocol: as §1
Uptake of [^3H]-D-Phe-L-Gln (17.4 Ci/mmole, custom synthesised, Cambridge Research Biochemicals, Stockton-on-Tees, UK) was performed as previously described ([Meredith, 2004]). […] After incubation, the oocytes were washed sequentially five times in 1 ml of ice-cold 120 mM NaCl solution, lysed individually with 100 μl 2% (w/v) SDS and liquid scintillation counted. […]
Luminometry assays were performed as described previously ([Panitsas et al., 2006]). […] Luminometer (Turner-Designs 20/20, Promega) readings for at least 15 oocytes per data point were taken immediately.

Ki (wild-type rPepT1; pHout 5.5)	Ki (wild-type rPepT1; pHout 7.4)	decrease in the rate of transport per protein molecule (Y91F-rPepT1)	Molecule
320 µM and 330 µM	110 ± 10 µM		NCC(=O)N[C@@H](CCC(N)=O)C(=O)O [Gly-L-Gln] (H-Gly-Gln-OH)
		40%	[^3H]-D-Phe-L-Gln

Source: publication PMC3510438, “The transmembrane tyrosines Y56, Y91 and Y167 play important roles in determining the affinity and transport rate of the rabbit proton-coupled peptide transporter PepT1” (The International Journal of Biochemistry & Cell Biology, 2009)
